Measurements as given in PMC3899824 (Investigational new drugs, 2013).
Where two headings read alike, the source gives them in different places.

Experiments:
tubulin = experiment: Cell-free tubulin polymerization assay; format: biochemical; conditions: 5 μM, 60m at 340 nm
[1] = test system: MM.1S multiple myeloma cells; experiment: Apoptosis by AnnexinV/PI flow cytometry, MM.1S; format: cell-based, human; conditions: 200 nM PC-046 24h, without active caspase inhibitor
8226/S myeloma cells = conditions: read-out: IC50, nM (Mean ± SEM), 72h, MTT
[2] = test system: 8226/IM10 myeloma cells (imexon-resistant); conditions: read-out: IC50, nM (Mean ± SEM); 8226/IM10, 72h, MTT
NIH-H929 myeloma cells = conditions: read-out: IC50, nM (Mean ± SEM); NIH-H929, 72h, MTT
MM.1S myeloma cells = conditions: read-out: IC50, nM (Mean ± SEM), 72h, MTT
U266 myeloma cells = conditions: read-out: IC50, nM (Mean ± SEM); U266, 72h, MTT
OCI-AML3 leukemia cells = conditions: read-out: IC50, nM (Mean ± SEM); OCI-AML3, 72h, MTT
MV-4-11 leukemia cells = conditions: read-out: IC50, nM (Mean ± SEM); MV-4-11, 72h, MTT
[3] = test system: MiaPaCa-2 pancreatic cells; conditions: read-out: IC50, nM (Mean ± SEM); MiaPaCa-2, 72h, MTT
Panc-1 pancreatic cells = conditions: read-out: IC50, nM (Mean ± SEM); Panc-1, 72h, MTT
BxPC-3 pancreatic cells = conditions: read-out: IC50, nM (Mean ± SEM); BxPC-3, 72h, MTT
MDA-MB231 breast cells = conditions: read-out: IC50, nM (Mean ± SEM); MDA-MB231, 72h, MTT
DU-145 prostate cells = conditions: read-out: IC50, nM (Mean ± SEM); DU-145, 72h, MTT
HCT-116 colon cells = conditions: read-out: IC50, nM (Mean ± SEM); HCT-116 parental, 72h, MTT
[4] = test system: HCT-116 DPC4 (−/−) colon cells
[5] = test system: H69S small cell lung cancer cells; conditions: read-out: IC50, nM (Mean ± SEM), 72h, MTT
[6] = test system: U266 multiple myeloma cells; conditions: U266, 24h, 25-100 nM
[7] = test system: 8226/S multiple myeloma cells; conditions: 150 nM PC-046, 16h, baseline 3.31 (0.14)
[8] = test system: MM.1S multiple myeloma cells; conditions: 150 nM PC-046, 16h, baseline 3.14 (0.15)
[9] = test system: OCI-AM-3 (Acute Myeloid Leukemia) human tumor xenograft; conditions: 55 mg/kg IP, Dailyx5, off 5d, repeat 1×
[10] = test system: MV-4-11 (Acute Myeloid Leukemia) human tumor xenograft; conditions: 55 mg/kg IP, Dailyx5, off 5d, repeat 2×
[11] = test system: DU-145 (Prostate Cancer) human tumor xenograft; conditions: 55 mg/kg IP, Dailyx5, off 7d, repeat 2×
[12] = test system: PC-3 (Prostate Cancer) human tumor xenograft; conditions: 55 mg/kg IP, Dailyx5, off 5d, repeat 1×
[13] = 50–55 mg/kg IP, daily × 5 days, 5 to 7 days off, 2–3 courses
[14] = SCID mice; for AUC: variance per Yuan in brackets
[15] = test system: DPC4 (-/-) BxPC3 pancreatic cancer cell line vs DPC4 (+/+) isogenic cell line; conditions: cited from earlier work
TRK-B = conditions: at pharmacologically-achievable concentrations; cited from earlier work
PDGF-alpha = conditions: at pharmacologically-achievable concentrations; cited from earlier work
FLT-1 = conditions: FLT-1, at pharmacologically-achievable concentrations; cited from earlier work
[16] = test system: human pancreatic cancer cells; conditions: cited from earlier work
[17] = test system: 8226/S (Multiple Myeloma) human tumor xenograft; experiment: Xenograft efficacy, 8226/S; conditions: 50 mg/kg IP

COc1ccc(-c2cnc(-c3ccncc3-c3cccc(OC)c3)o2)cc1 [PC-046, 5-(4-methoxyphenyl)pyridine-4-yl]
effect on tubulin polymerization (tubulin): inhibits tubulin polymerization
AnnexinV-positive cells [1]: 32.6%
IC50 (8226/S myeloma cells): 134 ± 13.8 nM
IC50 [2]: 102 ± 27.5 nM
IC50 (NIH-H929 myeloma cells): 163 ± 13.9 nM
IC50 (MM.1S myeloma cells): 162 ± 39.6 nM
IC50 (U266 myeloma cells): 70.1 ± 16.2 nM
IC50 (OCI-AML3 leukemia cells): 177 ± 31.8 nM
IC50 (MV-4-11 leukemia cells): 193 ± 10.8 nM
IC50 [3]: 296 ± 72.1 nM
IC50 (Panc-1 pancreatic cells): 215 ± 49.4 nM
IC50 (BxPC-3 pancreatic cells): 199 ± 48.2 nM
IC50 (MDA-MB231 breast cells): 206 ± 49.2 nM
IC50 (DU-145 prostate cells): 160 ± 39.4 nM
IC50 (HCT-116 colon cells): 99.5 ± 15.8 nM
increased activity for the DPC4 (-/-) HCT-116 cell line compared to the wild type HCT-116 cells ([4]; ratio of IC50 values): roughly 2 fold
IC50 ([4]; read-out: IC50, nM (Mean ± SEM), HCT-116 DPC4 (−/−), 72h, MTT): 52 ± 5.3 nM
IC50 [5]: 240 ± 10.9 nM
cell cycle effect (DNA content) [6]: accumulation of cells in the G2/M-phase
% positive histone H3 cells, mean (SEM) [7]: 34.70 (5.84) %
% positive histone H3 cells, mean (SEM) [8]: 17.3 (1.28) %
Mean (SD), mm^3, DPC046 (tumor AUC) ([9]; control 17752.6 (8665.6)): 12433.4 (4647.1) mm^3
Tumor AUC % Change ([9]; vs control, p NS): −29.90%
Mean (SD), mm^3, DPC046 (tumor AUC) ([10]; control 18702.7 (7654.1)): 11309.3 (5293.3) mm^3
Tumor AUC % Change ([10]; vs control, p 0.0374): −39.50%
Mean (SD), mm^3, DPC046 (tumor AUC) ([11]; control 69969.6 (22735.3)): 45801.8 (23344.4) mm^3
Tumor AUC % Change ([11]; vs control, p 0.04886): −34.50%
Mean (SD), mm^3, DPC046 (tumor AUC) ([12]; control 10438.6 (4303.9)): 8238.1 (2506.2) mm^3
Tumor AUC % Change ([12]; vs control, p NS): −21.10%
lethality [13]: no lethality
loss of body weight [13]: about 10%
Cmax ([14]; 100mg/kg IP): 4.01 µg/mL
T ½ ([14]; 100mg/kg IP): 5.17 h
Tmax ([14]; 100mg/kg IP): 0.08 h
AUC ([14]; 100mg/kg IP): 5.22(0.68) ^# hr* μg/mL
Clearance ([14]; 100mg/kg IV): 19.9 L/h/kg
Cmax ([14]; 100mg/kg IV): 1.66 µg/mL
T ½ ([14]; 100mg/kg IV): 8.40 h
Tmax ([14]; 100mg/kg IV): 0.17 h
Vol. Dist. ([14]; 100mg/kg IV): 240.3 L/kg
AUC ([14]; 100mg/kg IV): 5.02 (0.29) ^# hr* μg/mL
F (bioavailabilty) ([14]; 100mg/kg PO vs IV): 0.71
Cmax ([14]; 100mg/kg PO): 1.55 µg/mL
T ½ ([14]; 100mg/kg PO): 3.17 h
Tmax ([14]; 100mg/kg PO): 0.08 h
AUC ([14]; 100mg/kg PO): 3.55(0.75) ^# hr* μg/mL
oral bioavailability ([14]; 100 mg/kg oral gavage compared to the IV route): 71%
selectivity index previously reported [15]: 1.74 x
kinase inhibition in vitro (TRK-B): inhibit
kinase inhibition in vitro (PDGF-alpha): inhibit
kinase inhibition in vitro (FLT-1): inhibit
cell cycle effect [16]: accumulate in G2/M phases
tumor growth inhibition in vivo (in words) ([17]; 8226/S myeloma xenograft): no growth inhibition was observed
Mean (SD), mm^3, DPC046 (tumor AUC) ([17]; 8226/S, Every third day, repeat 10×, control 27292.6 (13688.8)): 28516.9 (9067.3) mm^3
Tumor AUC % Change ([17]; 8226/S, Every third day, repeat 10×, vs control, p NS): +4.5%
